In data set [1] the test system is Leishmania donovani (L. d.). As to the kind of experiment: In vitro antiprotozoal activity against L. d. The settings on record: read-out: L. d. IC50. It counts as cell-based. On the procedure: (§1) In vitro antiprotozoal activities were measured following established protocols. See Ismail, M. A., et al., J. Med. Chem., 46, 4761-4769 (2003); Stephens, C. E., et al., Bioorg. Med. Chem. Lett., 13, 2065-2069 (2003) (in vitro assay against Leishmania donovani).
(§2) Testing methods are as described above in Example 17.

For data set [2], the system named is Trypanosoma brucei rhodesiense (T. b. r.). As to the kind of experiment: In vitro antiprotozoal activity against T. b. r. It counts as cell-based. On the procedure:
as §1, §2

For data set [3], the system named is STIB 900 strain of Trypanosoma brucei rhodesiense. As to the kind of experiment: T. b. r. STIB 900 mouse model. Format: in vivo. The settings on record: for responders at 20 mg/kg: Trypanosoma brucei, 1440 h, read-out: Cures (converted). The procedure:
The activities of compounds 20, 18, 21, 48, 23c, 24c, 5, 4, and 10 against the STIB 900 strain of Trypanosoma brucei rhodesiense (T. b. r.) in a mouse model are shown in Table 3. […] Groups of four mice were infected intraperitoneally with 2×10^5 bloodstream forms of T. b. r. STIB 900 which originates from a patient in Tanzania. On days 3, 4, 5, and 6 post-infection the experimental groups were treated with the indicated compound, either by the intraperitoneal route, or for prodrugs, by the oral route. Usually the highest tolerated dose was used. The highest tolerated dose was determined in a pretoxicological experiment.
Parasitemia of the mice was checked daily up to day 14 post-infection and thereafter 2 times per week up to day 60. One group of mice was not treated and acted as control. Untreated control animals expire between day 7 and 8 post-infection. For relapsing mice, the day of death was recorded and the survival time determined. For the data shown in Table 3, cures reflect the number of mice that survive and are parasite free for 60 days. Survival reflects the average days of survival.
as §2

In data set [4] the test system is Plasmodium falciparum (P. f.). As to the kind of experiment: In vitro antiprotozoal activity against P. f. It counts as cell-based. The procedure:
as §1, §2

Another data set concerns L-6 rat mycoblast cells. The data set can be described thus: cells. On the procedure: as §1, §2
The next data set has as its system DNA minor groove. The data set can be described thus: ΔTm of linear triaryl dications (DNA minor groove binding). The settings on record: Table 1.
Where [5] appears, read: Trypanosoma brucei, RHODESIENSE, Table 1, k/K = thousand, read-out: T. b. r. IC50.
The mark [6] stands for this setting: 20 mg/kg ip, days 3-6 post-infection, average days of survival.
The mark [7] stands for this setting: 20 mg/kg ip, days 3-6 post-infection, mice surviving parasite free for 60 days, groups of four.
Setting [8] is: Plasmodium falciparum, Table 1, k/K = thousand.
Where [9] appears, read: Rattus norvegicus, L6, read-out: CT IC50.
Setting [10] is: Table 1, k/K = thousand, read-out: T. b. r. IC50.
The mark [11] stands for this setting: read-out: CT IC50, Table 1, L-6 cells.
[12] abbreviates: Rattus norvegicus, L6, read-out: CT IC50, Table 4, L-6 cells.

Counter-ions that a name gives are not always drawn. Like-named read-outs stand apart in the source and are kept apart here. A value given as a limit tells only on which side of the number the result lay.

What is called melting point is the temperature, or range, at which the solid turns liquid. The term IC50 denotes the midpoint of a concentration-inhibition curve. As a reminder, the ΔTm is the change in melting temperature against a reference sample.

In turn, `CC(=O)O.N=C(N)c1ccc(-c2ccc(-c3ccc(C(=N)N)o3)cc2)o1` registered a melting point of 228 to 230 °C.
Still for that read-out and setting: then `CONC(=N)c1ccc(-c2cnc(-c3ccc(C(=N)NOC)cc3)nc2)cc1` (as salt: hydrochloride) [Compound 29, 2,5-Bis-[4′-(N-methoxyamidino)phenyl]-pyrimidine], with 217 to 218 °C; and `N=C(NO)c1ccc(-c2ccc(-c3ccc(C(=N)NO)o3)cn2)cc1` [Compound 9, N-Hydroxy-5-{6-[4-(N-hydroxyamidino)-phenyl]-pyridin-3-yl}-furan-2-carboxamidine], with 194 to 195 °C.
Turning to `CC(=O)O.N=C(N)c1ccc(-c2ccc(-c3ccc(C(=N)N)o3)cn2)cc1` [Compound 10, 5-[6-(4-Amidinophenyl)-pyridin-3-yl]-furan-2-carboxamidine acetate salt], the IC50 in data set [1] (Leishmania donovani, Table 1) came to 20500 nM; in data set [2] (setting [5]), 2 nM; in data set [4] (setting [8]), 5.2 nM; with L-6 rat mycoblast cells (setting [9]), 30900 nM. This compound came in with a Survival in data set [3] (setting [6]) greater than 53.5 days. The responders at 20 mg/kg in data set [3] (setting [7]) is 75%.
Consider `N=C(NO)c1ccc(-c2ccc(-c3ccc(C(=N)NO)o3)cc2)o1` [Compound 13, N-Hydroxy-5-{4-[5-(N-hydroxyamidino)-furan-2-yl]-phenyl}-furan-2-carboxamidine], for which the melting point was greater than 300 °C.
Regarding `CC(=O)O.N=C(N)c1ccc(-c2ccc(-c3ccc(C(=N)N)cc3)cc2)cc1` [Compound 20, [1,1′;4′,1″]Terphenyl-4,4″-bis-carboxamidine acetate salt], the ΔTm in the data set with DNA minor groove turned out to be 19.1 °C. Besides, the IC50 in data set [2] (setting [5]) came out at 5 nM; in data set [4] (setting [8]), 1 nM; with L-6 rat mycoblast cells (setting [9]) it was 22100 nM. This compound gave a Survival in data set [3] (setting [6]) of 52.5 days. Moreover, the responders at 20 mg/kg in data set [3] (setting [7]) is 0%.
In the case of `Cl.N=C(N)c1ccc(-c2ccc(-c3ccc(C(=N)N)cc3)c(F)c2)cc1` [Compound 23a, 2′-Fluoro-[1,1′;4′,1″]terphenyl-4,4″-bis-amidine hydrochloride salt], the ΔTm with DNA minor groove worked out at 15.1 °C. Moreover, the IC50 is 340 nM in data set [1] (Leishmania donovani, Table 1); 2 nM in data set [2] (setting [5]); 1 nM in data set [4] (setting [8]); 6400 nM in the data set with L-6 rat mycoblast cells (setting [9]).
Take `N=C(NO)c1ccc(-c2ccc(-c3ccc(C(=N)NO)cc3)nc2)cc1` [Compound 24c, Phenyl[1,1′]pyridyl[4′,1″]phenyl-4,4″-bis-N-hydroxycarboxamidine]: the IC50 was 9300 nM in data set [2] (setting [10]); 7600 nM in data set [4] (Table 1, k/K = thousand); greater than 184000 nM with L-6 rat mycoblast cells (setting [11]). Moreover, the Survival in data set [3] (100 mg/kg po, days 3-6 post-infection, average days of survival) is reported as greater than 35.75 days. Besides, in data set [3] (100 mg/kg po, days 3-6 post-infection, mice surviving parasite free for 60 days, groups of four), the Cures was 1/4.
Compound `N=C(NO)c1ccc(-c2cnc(-c3ccc(C(=N)NO)cc3)nc2)cc1` [Compound 28, 2,5-Bis-[4′-(N-hydroxyamidino)phenyl]-pyrimidine] showed a melting point of 290 to 292 °C.
Turning to `N=C(N)c1ccc(-c2ccc(-c3ccc(C(=N)N)cn3)cc2)nc1` [Compound 31, 1,4-Bis-(5′-amidinopyridin-2′-yl)-phenylene], the IC50 in data set [1] (Table 1) was greater than 100000 nM; in data set [2] (setting [10]), 47 nM; in data set [4] (Table 1, k/K = thousand), 10 nM.
For `N=C(N)c1ccc(-c2ccc(-c3ccc(C(=N)N)cc3)c3ccccc23)cc1` [Compound 38a, Phenyl[1,1]napthyl[4′,1″]phenyl-4,4″-bis-amidine], the IC50 in data set [1] (Table 2) was found to be 12900 nM; in data set [2] (Table 2, K = thousand, read-out: T. b. r. IC50), 175 nM; in data set [4] (Table 2, K = thousand), 21 nM; in the data set on L-6 rat mycoblast cells, 7300 nM.
For the compound `CC(C)N=C(N)Nc1ccc(-c2ccc(-c3ccc(NC(N)=NC(C)C)cc3)cc2)cc1` [Compound 51b, 4,4″-Bis(N′-isopropyl)-guanidino-[1,1′;4′,1″]terphenyl], the IC50 in data set [1] (Table 1) was determined as 7200 nM; in data set [2] (setting [10]), 530 nM; in data set [4] (Table 1, k/K = thousand), 14 nM; in the data set on L-6 rat mycoblast cells (setting [11]), 21900 nM.
For `Cl.NC(=NO)c1ccc(-c2ccc(-c3ccc(C(N)=NO)nc3)cc2)cn1` [Compound 67, 1,4-Bis-[2′-(N-hydroxyamidinopyridin-5′-yl)]-phenylene hydrochloride salt], the IC50 in data set [2] (setting [10]) was 12000 nM; in data set [4] (Table 1, k/K = thousand), 2400 nM; in the data set with L-6 rat mycoblast cells (setting [11]) it was 8100 nM. The Cures in data set [3] (25 mg/kg po, Table 5) was 0/4. The Survival in data set [3] (25 mg/kg po, Table 5) stood at 16.25 days.
Regarding `N=C(N)c1cnc(-c2ccc(-c3cnc(C(=N)N)cn3)cc2)cn1` [Compound 71, 1,4-Bis-(2′-amidinopyrazin-5′-yl)-phenylene hydrochloride salt], the IC50 in data set [1] (Leishmania donovani, Table 4) was found to be 10000 nM; in data set [4] (Plasmodium falciparum, Table 4) it was 5170 nM; with L-6 rat mycoblast cells (setting [12]) it was 46500 nM.
Take `N=C(N)c1ncc(-c2ccc(-c3cnc(C(=N)N)nc3)cc2)cn1` [Compound 73, 1,4-Bis-(2′-amidinopyrimidin-5′yl)-phenylene hydrochloride salt]: the IC50 in data set [1] (Leishmania donovani, Table 4) is 1720 nM.
Regarding `N=C(N)c1ccc(-c2cnc(-c3ccc(C(=N)N)cc3)cn2)cc1` [Compound 75, 2,5-Bis-(4′-amidinophenyl)-pyrazine hydrochloride salt], the IC50 in data set [1] (Leishmania donovani) amounted to 562 nM; in data set [2] (Trypanosoma brucei, RHODESIENSE, read-out: T. b. IC50), 18 nM; with L-6 rat mycoblast cells (setting [12]) it was 42500 nM.
For `N=C(N)c1ccc(-c2cnc(-c3ccc(C(=N)N)nc3)nc2)cn1` [Compound 77, 2,5-Bis-(2′-amidinopyridin-5′-yl)-pyrimidine hydrochloride salt], the IC50 in data set [1] (Leishmania donovani, Table 4) was 1830 nM.
For `N=C(N)c1ccc(-c2ccc(-c3ccc(C(=N)N)nc3)cc2)cc1` [Compound 80, Phenyl[1,1′]phenyl[4′,5″]pyridinyl-4,2″-bis-amidine hydrochloride salt], the IC50 came to 84 nM in data set [1] (Leishmania donovani, Table 4) and 2800 nM in the data set with L-6 rat mycoblast cells (setting [12]).
Take `N=C(N)c1ccc(-c2ccc(-c3ccc(C(=N)N)cn3)cc2)cc1` [Compound 83, Phenyl[1,1′]phenyl[4′,2″]pyridinyl-4,5″-bis-amidine hydrochloride salt]: the IC50 was determined as 1370 nM in data set [1] (Leishmania donovani, Table 4) and 26700 nM with L-6 rat mycoblast cells (setting [12]).
As for `N=C(N)c1ccc(-c2ccc(-c3cnc(C(=N)N)nc3)cc2)cc1` [Compound 86, Phenyl[1,1′]phenyl[4′,5″]pyrimidinyl-4,2″-bis-amidine hydrochloride salt], in data set [1] (Leishmania donovani, Table 4), the IC50 was found to be 190 nM.
Take `N=C(N)c1ccc(-c2ccc(-c3ccc(C(=N)N)nc3)cn2)cc1` [Compound 89, Phenyl[1,2′]pyridinyl[5′,5″]pyridinyl-4,2″-bis-amidine hydrochloride salt]: the IC50 in data set [1] (Leishmania donovani, Table 4) worked out at 510 nM; in data set [2] (Trypanosoma brucei, RHODESIENSE, Table 4, read-out: T. b. IC50) it was 6 nM; in data set [4] (Plasmodium falciparum, Table 4) it was 1 nM; in the data set with L-6 rat mycoblast cells (setting [12]) it was 19900 nM. For the same compound, the Cures in data set [3] (5 mg/kg ip, Table 5) was 3/4. The same compound came in with a Survival in data set [3] (5 mg/kg ip, Table 5) greater than 60 days.
For the compound `CON=C(N)c1ccc(-c2ccc(-c3ccc(C(N)=NOC)nc3)cn2)cc1.Cl` [Compound 91, Phenyl[1,2′]pyridinyl[5′,5″]pyridinyl-4,2″-bis-N-methoxyamidine hydrochloride salt], the IC50 in data set [2] (Table 4, read-out: T. b. IC50) stood at 1980 nM; in data set [4] (Table 4) it was 2150 nM; in the data set on L-6 rat mycoblast cells (read-out: CT IC50, Table 4, L-6 cells), 12800 nM. Besides, in data set [3] (25 mg/kg ip, Table 5), the Cures is 0/4. For the same compound, in data set [3] (25 mg/kg ip, Table 5), the Survival was 22.25 days.
On to `N=C(N)c1ccc(-c2ccc(-c3ccc(C(=N)N)cn3)cn2)cc1` [Compound 94, Phenyl[1,2′]pyridinyl[5′,2″]pyridinyl-4,5″-bis-amidine hydrochloride salt], for which the IC50 in data set [1] (Leishmania donovani, Table 4) was 6820 nM; in data set [4] (Plasmodium falciparum, Table 4), 3 nM; in the data set on L-6 rat mycoblast cells (setting [12]), 28300 nM. The compound also yielded a Survival in data set [3] (5 mg/kg ip, Table 5) greater than 60 days.
Turning to `N=C(N)c1ccc(-c2ccc(-c3cnc(C(=N)N)cn3)cn2)cc1` [Compound 97, Phenyl[1,2′]pyridinyl[5′,5″]pyrazinyl-4,2″-bis-amidine hydrochloride salt], the IC50 in data set [1] (Leishmania donovani, Table 4) stood at 15600 nM; in the data set on L-6 rat mycoblast cells (setting [12]), 93400 nM.
As to `N=C(N)c1ccc(-c2ccc(-c3cnc(C(=N)N)nc3)cn2)cc1` [Compound 100, Phenyl[1,2′]pyridinyl[5′,5″]pyrimidinyl-4,2″-bis-amidine hydrochloride salt], the IC50 in data set [1] (Leishmania donovani, Table 4) amounted to 2640 nM.

Values taken from patent US8188121B2, “Substituted pyridines as antiparasitic AZA teraryl compounds” (The University of North Carolina at Chapel Hill, priority 2005, dated 2012).
